Experimental findings from patent US12522601B2, “1,3,4-oxadiazole derivative compounds as histone deacetylase 6 inhibitor, and the pharmaceutical composition comprising the same” (CHONG KUN DANG PHARMACEUTICAL CORP., priority 2020, dated 2026) are described below.

The structures appear in SMILES notation. Bounds are passed on as bounds.

For one test, the target named is T1, human recombinant HDAC6 (Homo sapiens, UniProt Q9UBN7).
T1 construct: purchased Calbiochem Inc. 382180
T1 sequence (Q9UBN7 1-1215): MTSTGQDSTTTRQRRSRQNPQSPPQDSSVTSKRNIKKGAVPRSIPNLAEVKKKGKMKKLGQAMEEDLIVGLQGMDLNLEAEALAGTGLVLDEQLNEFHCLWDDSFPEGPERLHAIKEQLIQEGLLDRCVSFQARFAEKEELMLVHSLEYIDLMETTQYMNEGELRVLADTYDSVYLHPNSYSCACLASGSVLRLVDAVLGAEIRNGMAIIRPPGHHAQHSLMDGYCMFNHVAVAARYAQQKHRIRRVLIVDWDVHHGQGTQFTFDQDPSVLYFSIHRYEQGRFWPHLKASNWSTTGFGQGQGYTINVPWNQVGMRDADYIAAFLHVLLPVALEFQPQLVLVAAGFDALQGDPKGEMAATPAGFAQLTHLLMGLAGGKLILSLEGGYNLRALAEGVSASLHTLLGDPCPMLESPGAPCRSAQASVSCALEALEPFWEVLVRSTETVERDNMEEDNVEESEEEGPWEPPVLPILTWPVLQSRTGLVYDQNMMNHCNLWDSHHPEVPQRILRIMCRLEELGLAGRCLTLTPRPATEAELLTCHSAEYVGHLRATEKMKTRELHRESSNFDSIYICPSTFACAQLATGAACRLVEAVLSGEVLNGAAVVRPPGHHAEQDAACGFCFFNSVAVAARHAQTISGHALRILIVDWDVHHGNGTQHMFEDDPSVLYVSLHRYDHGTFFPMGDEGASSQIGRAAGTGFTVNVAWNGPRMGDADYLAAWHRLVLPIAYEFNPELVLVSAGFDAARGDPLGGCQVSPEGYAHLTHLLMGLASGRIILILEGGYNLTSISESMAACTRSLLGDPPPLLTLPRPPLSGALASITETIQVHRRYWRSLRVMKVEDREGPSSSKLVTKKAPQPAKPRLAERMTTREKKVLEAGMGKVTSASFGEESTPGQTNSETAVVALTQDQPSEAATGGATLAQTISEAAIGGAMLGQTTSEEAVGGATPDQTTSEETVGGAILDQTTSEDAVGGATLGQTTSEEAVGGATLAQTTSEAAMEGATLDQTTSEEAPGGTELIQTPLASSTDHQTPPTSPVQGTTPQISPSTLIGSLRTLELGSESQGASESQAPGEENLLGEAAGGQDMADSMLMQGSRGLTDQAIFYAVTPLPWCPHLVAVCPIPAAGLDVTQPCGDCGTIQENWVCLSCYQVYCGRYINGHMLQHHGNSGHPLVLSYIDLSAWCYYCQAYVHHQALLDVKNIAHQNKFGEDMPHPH
As to the kind of experiment: In vitro HDAC enzyme activity inhibition assay, HDAC6 (HDAC Fluorimetric Drug Discovery Kit). The test is classed as biochemical. Particulars: for HDAC6 Selectivity (fold): HDAC6 versus HDAC1; for IC50: human recombinant HDAC6, same protocol as the HDAC1 test. The method, then:
(§1) In order to confirm the selectivity of the compounds represented by Chemical Formula I of the present invention to HDAC6 through HDAC1 and HDAC6 enzyme activity inhibition experiments, a comparison experiment was performed using the material that has already been developed as a control group.
(§2) HDAC enzyme activity was measured using the HDAC Fluorimetric Drug Discovery Kit (Enzo Life Sciences, Inc., BML-AK511, 516). For the HDAC1 enzyme activity test, human recombinant HDAC1 (BML-SE456) was used as an enzyme source and Fluor de Lys®-SIRT1 (BNL-KI177) was used as a substrate. After dispensing 5-fold diluted compounds into a 96-well plate, 0.3 μg of enzyme and 10 μM substrate were added to each well of the plate and allowed to react at 30° C. for 60 minutes. Next, Fluor de Lys® Developer II (BML-KI176) was added and reacted for 30 minutes to complete the reaction, and then the fluorescence values (Ex 360, Em 460) were measured using a multi-plate reader (Flexstation 3, Molecular Device). The HDAC6 enzymes were tested using human recombinant HDAC6 (382180) from Calbiochem Inc., according to the same protocol as the HDAC1 enzyme activity test method. With respect to the final result values, respective IC50 values were calculated using GraphPad Prism 4.0 program, and results thereof were summarized in Table 5 below.

The target in the next test is T2, human recombinant HDAC1 (Homo sapiens, UniProt Q13547).
T2 construct: purchased Enzo Life Sciences, Inc. BML-SE456
T2 sequence (Q13547 whole entry): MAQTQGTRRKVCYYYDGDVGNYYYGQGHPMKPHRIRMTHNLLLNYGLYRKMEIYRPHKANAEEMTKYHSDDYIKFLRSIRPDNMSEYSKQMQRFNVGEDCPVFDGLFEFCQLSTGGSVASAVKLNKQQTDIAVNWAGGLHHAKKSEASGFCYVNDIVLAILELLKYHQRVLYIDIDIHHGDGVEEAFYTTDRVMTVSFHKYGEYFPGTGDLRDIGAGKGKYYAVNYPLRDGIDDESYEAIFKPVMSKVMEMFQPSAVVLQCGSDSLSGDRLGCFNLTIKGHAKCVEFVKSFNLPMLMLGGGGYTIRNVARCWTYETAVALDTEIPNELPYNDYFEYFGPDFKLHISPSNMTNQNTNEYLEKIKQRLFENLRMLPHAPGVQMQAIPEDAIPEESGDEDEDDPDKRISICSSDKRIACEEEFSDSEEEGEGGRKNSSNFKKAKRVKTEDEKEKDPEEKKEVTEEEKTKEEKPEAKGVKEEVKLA
Nature of the test: In vitro HDAC enzyme activity inhibition assay, HDAC1 (HDAC Fluorimetric Drug Discovery Kit). Particulars: human recombinant HDAC1, Fluor de Lys-SIRT1 substrate 10 μM, 30° C. for 60 minutes. Type of test: biochemical. As for the experimental part:
as §1, §2

By IC50 is commonly meant the concentration needed to halve the response being measured. As to `CC(=O)N1CCN(C(=O)N(Cc2cn3ccc(-c4nnc(C(F)F)o4)cc3n2)c2ccccc2)CC1` [Compound 4040, 4-acetyl-N-((7-(5-(difluoromethyl)-1,3,4-oxadiazol-2-yl)imidazo[1,2-a]pyridin-2-yl)methyl)-N-phenylpiperazine-1-carboxamide], at human recombinant HDAC6, the “HDAC6 Selectivity (fold)” value is given as 421 fold and the IC50 worked out at 119 nM. The half-inhibitory concentration (IC50) at human recombinant HDAC1 was greater than 50000 nM.
The like results for `COC(=O)N1CCN(C(=O)N(Cc2cn3ccc(-c4nnc(C(F)F)o4)cc3n2)c2cccc(F)c2)CC1` [Compound 4098, methyl 4-(((7-(5-(difluoromethyl)-1,3,4-oxadiazol-2-yl)imidazo[1,2-a]pyridin-2-yl)methyl)(3-fluorophenyl)carbamoyl)piperazine-1-carboxylate] were, in that order, 325 fold, 154 nM and greater than 50000 nM.
On the same counts, the results for `CCN1CCN(C(=O)N(Cc2cn3ccc(-c4nnc(C(F)F)o4)cc3n2)c2ccccc2)CC1` [Compound 4033, N-((7-(5-(difluoromethyl)-1,3,4-oxadiazol-2-yl)imidazo[1,2-a]pyridin-2-yl)methyl)-4-ethyl-N-phenylpiperazine-1-carboxamide] are 538 fold, 93 nM and greater than 50000 nM.
In the case of `O=C(C1CCN(C(=O)C(F)(F)F)CC1)N(Cc1cn2ccc(-c3nnc(C(F)F)o3)cc2n1)c1ccccc1` [Compound 4127, N-((7-(5-(difluoromethyl)-1,3,4-oxadiazol-2-yl)imidazo[1,2-a]pyridin-2-yl)methyl)-N-phenyl-1-(2,2,2-trifluoroacetyl)piperidine-4-carboxamide], the “HDAC6 Selectivity (fold)” value on human recombinant HDAC6 is listed as 82 fold. Also, the 50% inhibitory concentration (IC50) was 612 nM on human recombinant HDAC6 and greater than 50000 nM on human recombinant HDAC1.
On the same counts, the results for `O=C(C1CN(C2CCOCC2)C1)N(Cc1cn2ccc(-c3nnc(C(F)F)o3)cc2n1)c1ccccc1` [Compound 4165, N-((7-(5-(difluoromethyl)-1,3,4-oxadiazol-2-yl)imidazo[1,2-a]pyridin-2-yl)methyl)-N-phenyl-1-(tetrahydro-2H-pyran-4-yl) azetidine-3-carboxamide] are 121 fold, 413 nM and greater than 50000 nM.
The like results for `CCN1CCC(C(=O)N(Cc2cn3ccc(-c4nnc(C(F)F)o4)cc3n2)c2ccccc2)CC1` [Compound 4115, N-((7-(5-(difluoromethyl)-1,3,4-oxadiazol-2-yl)imidazo[1,2-a]pyridin-2-yl)methyl)-1-ethyl-N-phenylpiperidine-4-carboxamide] were, in that order, 141 fold, 354 nM and greater than 50000 nM.
The like results for `O=C(C1CCN(c2ncccn2)CC1)N(Cc1cn2ccc(-c3nnc(C(F)F)o3)cc2n1)c1cccc(F)c1` [Compound 4157, N-((7-(5-(difluoromethyl)-1,3,4-oxadiazol-2-yl)imidazo[1,2-a]pyridin-2-yl)methyl)-N-(3-fluorophenyl)-1-(pyrimidin-2-yl)piperidine-4-carboxamide] were, in that order, 306 fold, 163 nM and greater than 50000 nM.
With `O=C(C1COC1)N1CCC(C(=O)N(Cc2cn3ccc(-c4nnc(C(F)F)o4)cc3n2)c2ccccc2)CC1` [Compound 4126, N-((7-(5-(difluoromethyl)-1,3,4-oxadiazol-2-yl)imidazo[1,2-a]pyridin-2-yl)methyl)-1-(oxetan-3-carbonyl)-N-phenylpiperidine-4-carboxamide], at human recombinant HDAC6, the “HDAC6 Selectivity (fold)” value amounted to 124 fold and the concentration for half-maximal inhibition (IC50) was determined as 404 nM. For the same compound, the half-maximal inhibitory concentration (IC50) on human recombinant HDAC1 was greater than 50000 nM.
The like results for `O=C(N1CCN(C2CCC2)CC1)N(Cc1cn2ccc(-c3nnc(C(F)F)o3)cc2n1)c1ccccc1` [Compound 4036, 4-cyclobutyl-N-((7-(5-(difluoromethyl)-1,3,4-oxadiazol-2-yl)imidazo[1,2-a]pyridin-2-yl)methyl)-N-phenylpiperazine-1-carboxamide] were, in that order, 321 fold, 156 nM and greater than 50000 nM.
On the same counts, the results for `COC(=O)N1CCC(C(=O)N(Cc2cn3ccc(-c4nnc(C(F)F)o4)cc3n2)c2ccccc2)CC1` [Compound 4129, methyl 4-(((7-(5-(difluoromethyl)-1,3,4-oxadiazol-2-yl)imidazo[1,2-a]pyridin-2-yl)methyl)(phenyl)carbamoyl)piperidine-1-carboxylate] are 125 fold, 401 nM and greater than 50000 nM.
On the same counts, the results for `CC(C)(C)OC(=O)N1CCN(C(=O)N(Cc2cn3ccc(-c4nnc(C(F)(F)F)o4)cc3n2)c2cccc(F)c2)CC1` [Compound 6892, tert-butyl 4-((3-fluorophenyl) ((7-(5-(trifluoromethyl)-1,3,4-oxadiazol-2-yl)imidazo[1,2-a]pyridine-2-yl)methyl)carbamoyl)piperazine-1-carboxylate] are 21.2 fold, 2360 nM and greater than 50000 nM.
For `Fc1ccc(NCc2cn3ccc(-c4nnc(C(F)F)o4)cc3n2)cc1Cl` [Compound 3672, 3-chloro-N-((7-(5-(difluoromethyl)-1,3,4-oxadiazol-2-yl)imidazo[1,2-a]pyridin-2-yl)methyl)-4-fluoroaniline], the “HDAC6 Selectivity (fold)” value at human recombinant HDAC6 is 464 fold. The IC50 on human recombinant HDAC6 is 108 nM; at human recombinant HDAC1, greater than 50000 nM.
Take `Fc1ccc(NCc2cn3ccc(-c4nnc(C(F)F)o4)cc3n2)cn1` [Compound 3676, N-((7-(5-(difluoromethyl)-1,3,4-oxadiazol-2-yl)imidazo[1,2-a]pyridin-2-yl)methyl)-6-fluoropyridin-3-amine]: on human recombinant HDAC6, the “HDAC6 Selectivity (fold)” value came to 354 fold. Further, the IC50 is 141 nM on human recombinant HDAC6 and greater than 50000 nM at human recombinant HDAC1.
On the same counts, the results for `FC(F)c1nnc(-c2ccn3cc(CNC45CC6CC(CC(C6)C4)C5)nc3c2)o1` [Compound 3677, (3s,5s,7s)-N-((7-(5-(difluoromethyl)-1,3,4-oxadiazol-2-yl)imidazo[1,2-a]pyridin-2-yl)methyl)adamantane-1-amine] are 196 fold, 255 nM and greater than 50000 nM.
Take `O=C(N1CCN(C(=O)C(F)(F)F)CC1)N(Cc1cn2ccc(-c3nnc(C(F)F)o3)cc2n1)c1cccc(F)c1` [Compound 4096, N-((7-(5-(difluoromethyl)-1,3,4-oxadiazol-2-yl)imidazo[1,2-a]pyridin-2-yl)methyl)-N-(3-fluorophenyl)-4-(2,2,2-trifluoroacetyl)piperazine-1-carboxamide]: at human recombinant HDAC6, the “HDAC6 Selectivity (fold)” value is 121 fold and the 50% inhibitory concentration (IC50) was 413 nM. Further, the IC50 at human recombinant HDAC1 is greater than 50000 nM.
Regarding `CC(=O)N1CCC(C(=O)N(Cc2cn3ccc(-c4nnc(C(F)F)o4)cc3n2)c2cccc(F)c2)CC1` [Compound 4146, 1-acetyl-N-((7-(5-(difluoromethyl)-1,3,4-oxadiazol-2-yl)imidazo[1,2-a]pyridin-2-yl)methyl)-N-(3-fluorophenyl)piperidine-4-carboxamide], the “HDAC6 Selectivity (fold)” value at human recombinant HDAC6 was determined as 206 fold. Moreover, the figures for the concentration for half-maximal inhibition (IC50) at human recombinant HDAC6 and on human recombinant HDAC1 were 243 nM and greater than 50000 nM, respectively.
